Values of other authors as cited in patent US20140037713A1, “TRANSDERMAL COMPOSITIONS FOR ANTI-CHOLINERGIC AGENTS” (ANTARES PHARMA IPL, AG, priority 2012, published 2014).

Conditions: Ref. 2

Dissociation const. (pKa): 8.04
Structure (SMILES): CCN(CC)CC#CCOC(=O)C(O)(c1ccccc1)C1CCCCC1 (racemic) [Oxybutynin, d,l (racemic) 4-diethylamino-2-butynyl phenylcyclohexylglycolate]
